Columns and labels:
[1] = molecular target: T1, Fe-SOD from Escherichia coli (Escherichia coli, UniProt P0AGD3); test: SOD activity assay with Fe-SOD; format: biochemical
T1 construct: purchased Sigma–Aldrich SRP6107
Description: (§1) Purified recombinant forms of SmSOD and StSOD were obtained through a heterologous expression system constituted by the Escherichia coli BL21(DE3) strain transformed with appropriate expression vectors, vSmSOD [11] or vStSOD [12]. These pET-22b(+)- or pET-28b(+)-derived plasmids led to the production of recombinant forms of SmSOD or StSOD, respectively fused to a His-tail, useful for their one-step purification by affinity chromatography, as previously described [11, 12]. The improvement of Mn uptake by SmSOD was realised as previously described [11, 12, 13]. The resulting metal (Fe and Mn) content in the cambialistic enzyme was determined by graphite furnace atomic absorption spectrometry with a Shimadzu ACS-6100 auto sampler [46]. Fe-SOD from Escherichia coli (cat. SRP6107) and the Cu/Zn-SOD from bovine erythrocytes (cat. 574594) were purchased from Sigma–Aldrich. A recombinant form of the eukaryal Mn–SOD from rat mitochondria was prepared as previously described [19]. Protein concentration was determined by the Bradford method, using bovine serum albumin as standard [47]. […] One unit of SOD activity was defined as the amount of enzyme that caused 50% inhibition of cytochrome c reduction.

[2] = molecular target: T2, SmSOD (Streptococcus mutans serotype c, UniProt P09738); test: Gel electrophoresis of SmSOD under not denaturing conditions; details: 7 to 51 µM protein, preincubation with 488 µM compound; not shown
T2 construct: His-tail; made in house; host or cells: Escherichia coli BL21(DE3), vector vSmSOD (pET-22b(+)-derived)
T2 sequence (P09738 2-203): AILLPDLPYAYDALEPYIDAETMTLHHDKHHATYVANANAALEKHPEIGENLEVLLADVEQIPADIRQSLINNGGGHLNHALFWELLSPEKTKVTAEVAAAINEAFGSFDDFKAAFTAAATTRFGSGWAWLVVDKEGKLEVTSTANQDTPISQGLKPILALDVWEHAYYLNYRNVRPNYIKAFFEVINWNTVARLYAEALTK
Description: The putative reversible interaction between SmSOD and ALS-31 was further investigated through the behaviour of this enzyme in gel electrophoresis. […] Therefore, the reversible and non-covalent interaction between SmSOD and ALS-31 allowed the disassemblage of the enzyme and consequently its inhibition, only when a proper concentration of the inhibitor remained in contact with the enzyme.

[3] = molecular target: T3, Mn–SOD from rat mitochondria (Rattus norvegicus, UniProt P07895); test: SOD activity assay with Mn-SOD; format: biochemical
T3 construct: made in house
T3 sequence (P07895 25-222): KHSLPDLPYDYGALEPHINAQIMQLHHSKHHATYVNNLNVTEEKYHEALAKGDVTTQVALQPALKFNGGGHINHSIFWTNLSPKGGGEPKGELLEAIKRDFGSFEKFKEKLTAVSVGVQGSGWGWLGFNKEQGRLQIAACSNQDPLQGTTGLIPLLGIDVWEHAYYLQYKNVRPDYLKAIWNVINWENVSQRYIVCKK
Description: as §1

[4] = tested on: Streptococcus mutans ATCC-700610; test: Crystal violet staining biofilm biomass assay; format: cell-based; details: 24 h
Description: The bacterial strain used for antimicrobial assays was Streptococcus mutans ATCC-700610. The strain was stored in 15% (v/v) glycerol stocks at −80 °C. Before each experiment, cells were subcultured from the stocks into Trypticase Soy Agar (TSA, cat. PA-254051.06) with 5% Sheep Blood (Becton Dickinson, Sparks, NV, USA) plates at 37 °C in 5% CO2 atmosphere for 48 h.
The crystal violet (CV) staining method was used to measure biofilm biomass formed in flat-bottomed 96-well microplates in the presence of ALS-31 or ALS-31-9, as described by Stepanović et al., with some modifications. A bacterial suspension of approximately 1.5 × 10^6 CFU/mL in BHI supplemented with 1% (w/v) glucose was prepared, and 100-µL aliquots of this suspension were incubated with 100 µL of serial dilutions of each compound. The microplate was incubated at 37 °C for 24 h, after which the non-adherent cells were gently aspirated and the wells gently rinsed with PBS (Sigma–Aldrich). The adhered biofilm was dried at 60 °C for 30 min and subsequently stained with 0.1% (w/v) crystal violet solution for 30 min. After washing with PBS and solubilization with absolute ethanol to release the dye from the biofilm, the plate was read at 570 nm in a spectrophotometer. The absorbance recorded was related to the amount of biofilm produced. The reduction in the mass of the biofilm was expressed as a percentage by using the formula [(Ac-At)/Ac] × 100, where Ac is the OD570 for the control wells and At is the OD570 in the presence of the tested compound.

T1 sequence (P0AGD3 2-193): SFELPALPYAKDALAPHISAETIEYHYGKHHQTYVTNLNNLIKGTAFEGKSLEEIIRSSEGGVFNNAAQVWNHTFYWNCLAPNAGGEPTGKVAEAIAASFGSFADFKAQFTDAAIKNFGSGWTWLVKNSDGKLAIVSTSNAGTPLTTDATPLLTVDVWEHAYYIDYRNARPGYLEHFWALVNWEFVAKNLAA

CSCCC(NC(=O)COc1ccc2c3c(c(=O)oc2c1)CCCC3)C(=O)NCCC(=O)O (centres unmarked) [ALS-31]
IC50 [1]: 123 ± 20 µM | electrophoretic mobility of SmSOD [2]: no change | IC50 [3]: 161 ± 56 µM | inhibition at 52.5 µM ([4]; Streptococcus mutans, ATCC700610, 52.5 µM, read-out: inhibition of biofilm biomass formation): 68.2% | effect on biofilm formation ([4]; serial dilutions from 52.5 µM): no effects

Reference: PMC9029323, “In Silico Identification of Novel Inhibitors Targeting the Homodimeric Interface of Superoxide Dismutase from the Dental Pathogen Streptococcus mutans” (Antioxidants, 2022)
